Laboratory results as given in US20250163016A1, “PYRIDINE DERIVATIVE, PREPARATION METHOD THEREFOR AND USE THEREOF” (CHENGDU EASTON BIOPHARMACEUTICALS CO., LTD., priority 2022, published 2025).

Experiments:
[1] = biological target: T1, LSD1 (Homo sapiens, UniProt O60341); experiment: LSD1 activity test (HTRF); type: biochemical; conditions: H3(1-21)K4 me1-biotin substrate, read-out: IC50, inhibitory activity on LSD1
T1 construct: purchased Active Motif 31432
Procedure: In this test, a homogeneous time resolved fluorescence (HTRF) technology was utilized, and the inhibitory activity of compounds on LSD1 was detected by adopting a two-step method. The first step was to incubate LSD1, compounds of different concentrations, and a biotin-labeled methylated polypeptide substrate (H3(1-21)K4 me1-biotin) at the room temperature for fixed time.
A corresponding solution with a 1000-fold final concentration was formed by dilution in a 384-well Source plate, and then Echo550 was used for transferring 10 nL to a 384-well reaction plate for being tested.
An inhibition percentage was calculated using a maximum value, a minimum value, and a signal value (maximum value: fluorescence intensity of 5 μL of 2× enzyme solution+5 μL of 2× substrate mixed solution+10 nL of 100% DMSO+10 μL of detection solution; minimum value: fluorescence intensity of 5 μL of 1× reaction solution+5 μL of 2× substrate mixed solution+10 nL of 100% DMSO+10 μL of detection solution; and signal value: fluorescence intensity of 5 μL of 2× enzyme solution+5 μL of 2× substrate mixed solution+10 nL of diluted compound to be tested+10 μL of detection solution), and a calculation formula was as follows: […]
Using a logarithm of the concentration as an X axis and the percentage inhibition rate as a Y axis, a dose-response curve was fitted using a formula log(inhibitor) vs. response-Variable slope (Four parameters) of analysis software Graphpad Prism 5 to obtain the IC50 value of each compound on the enzyme activity.

[2] = Pharmacokinetics of oral administration of rats; type: in vivo; conditions: male, rat, SD rats, p.o. 5.0 mg/kg, plasma
Procedure: With SD rats as tested animals, blood drug concentrations in plasma at different moments after oral administration of the compounds of the present application by the rats in a clarification kit mode were determined using an LC-MS/MS method. Pharmacokinetic parameters of the compounds of the present application in the rats were obtained, and pharmacokinetic characteristics of the compounds were studied.
• SD rats, male, weight 180-220 g, 3 rats per group. The animals were fed in an animal house after being purchased, an adaptation period was at least 3 days, and they were used for tests after passing quarantine.
According to Table 4, each group of rats was given the corresponding tested drugs or positive drugs by gavage, before administration, and 15 min, 30 min, 1 h, 2 h, 4 h, 6 h, 8 h, and 24 h after administration, a fixed volume of blood was collected through eye sockets and placed in an EDTA-K2 anticoagulant tube, centrifuging was carried out at 8000 rpm for 1 min to separate plasma into a centrifuge tube, and the plasma was frozen in a −20° C. refrigerator.
The plasma at each time point stored at −20° C. was taken out, then acetonitrile was added, after whirling at 1500 revolutions for 2 min, centrifuging was carried out for 15 min (3500 r/min), and a fixed volume of solution supernatant was taken for LC-MS/MS analysis.
Non-compartment model fitting was carried out on pharmacokinetic behaviors of the tested compounds, and DAS3.31 software was adopted to calculate main pharmacokinetic parameters (T1/2, Tmax, Cmax, AUClast, etc.).

IC50 [1] [nM]	AUC(0-t) [2] [ng·h/mL]	Cmax [2] [ng/mL]	Tmax [2] [h]	half-life [2] [h]	SMILES
2.1	1300 ± 411	93.9 ± 19.1	6	7.64 ± 2.46	COc1ccc(-c2c(C#N)cc(N3CCC(N)CC3)nc2-c2ccc(C#N)c(F)c2)cc1F [Compound 1, 6-(4-aminopiperid-1-yl)-2-(4-cyano-3-fluorophenyl)-3-(3-fluoro-4-methoxyphenyl)isonicotinonitrile]
4.8	–	–	–	–	COc1ccc(-c2c(C(N)=O)cc(N3CCC(N)CC3)nc2-c2ccc(C#N)c(F)c2)cc1F [Compound 2, 6-(4-aminopiperid-1-yl)-2-(4-cyano-3-fluorophenyl)-3-(3-fluoro-4-methoxyphenyl)isonicotinamide]
5.8	–	–	–	–	COc1ccc(-c2c(-c3ccc(C#N)c(F)c3)nc(N3CCC(N)CC3)c3c2CNC3=O)cc1F [Compound 3, 4-(4-(4-aminopiperid-1-yl)-7-(3-fluoro-4-methoxyphenyl)-3-oxo-2,3-dihydro-1H-pyrrole[3,4-c]pyrid-6-yl)-2-fluorobenzonitrile]
6.5	–	–	–	–	Cn1ncc2cc(-c3c(-c4ccc(C#N)c(F)c4)nc(N4CCC(N)CC4)c4c3CNC4=O)ccc21 [Compound 8, 4-(4-(4-aminopiperid-1-yl)-7-(1-methyl-1H-indazol-5-yl)-3-oxo-2,3-dihydro-1H-pyrrole[3,4-c]pyrid-6-yl)-2-fluorobenzonitrile]
0.72	–	–	–	–	CC(C)(O)Cn1ncc2cc(-c3c(-c4ccc(C#N)c(F)c4)nc(N4CCC(N)CC4)c4c3CNC4=O)c(F)cc21 [Compound 9, 4-(4-(4-aminopiperid-1-yl)-7-(6-fluoro-1-(2-hydroxyl-2-methylpropyl)-1H-indazol-5-yl)-3-oxo-2,3-dihydro-1H-pyrrole[3,4-c]pyrid-6-yl)-2-fluorobenzonitrile]
0.81	–	–	–	–	Cn1ncc2cc(-c3c(C(N)=O)cc(N4CCC(N)CC4)nc3-c3ccc(C#N)c(F)c3)ccc21 [Compound 10, 6-(4-aminopiperid-1-yl)-2-(4-cyano-3-fluorophenyl)-3-(1-methyl-1H-indazol-5-yl)isonicotinamide]
1.5	–	–	–	–	Cn1ncc2cc(-c3cc(C(N)=O)c(N4CCC(N)CC4)nc3-c3ccc(C#N)c(F)c3)ccc21 [Compound 11, 2-(4-aminopiperid-1-yl)-6-(4-cyano-3-fluorophenyl)-5-(1-methyl-1H-indazol-5-yl)nicotinamide]
4.4	–	–	–	–	Cn1ncc2cc(-c3cc(C#N)c(N4CCC(N)CC4)nc3-c3ccc(C#N)c(F)c3)ccc21 [Compound 12, 2-(4-aminopiperid-1-yl)-6-(4-cyano-3-fluorophenyl)-5-(1-methyl-1H-indazol-5-yl)nicotinonitrile]
8.9	1470 ± 44.6	130 ± 7.9	4.67 ± 2.31	5.97 ± 0.29	COc1ccc(-c2c(C#N)cc(C3CCC(N)CC3)nc2-c2ccc(C#N)c(F)c2)cc1F (stereo not shown) [Compound 14, 6-(4-aminocyclohexyl)-2-(4-cyano-3-fluorophenyl)-3-(3-fluoro-4-methoxyphenyl)isonicotinonitrile]
2	1550 ± 252	125 ± 25.8	6	5.73 ± 0.8	COc1ccc(-c2c(C#N)cc(N3CCCNCC3)nc2-c2ccc(C#N)c(F)c2)cc1F [Compound 15, 2-(4-cyano-3-fluorophenyl)-6-(1,4-diazacyclohepta-1-yl)-3-(3-fluoro-4-methoxyphenyl)isonicotinonitrile]
1.2	–	–	–	–	CC(C)(O)Cn1ncc2cc(-c3c(C(N)=O)cc(N4CCC(N)CC4)nc3-c3ccc(C#N)c(F)c3)c(F)cc21 [Compound 17, 6-(4-aminopiperid-1-yl)-2-(4-cyano-3-fluorophenyl)-3-(6-fluoro-1-(2-hydroxyl-2-methylpropyl)-1H-indazol-5-yl)isonicotinamide]
3.1	–	–	–	–	CC(C)(O)Cc1ccc(-c2c(C#N)cc(N3CCC(N)CC3)nc2-c2ccc(C#N)c(F)c2)c(F)c1 [Compound 19, 6-(4-aminopiperid-1-yl)-2-(4-cyano-3-fluorophenyl)-3-(2-fluoro-4-(2-hydroxyl-2-methylpropyl)phenyl)isonicotinonitrile]
1.4	1410 ± 293	126 ± 23.9	4.67 ± 1.15	4.66 ± 0.73	Cn1ncc2cc(-c3c(C#N)cc(N4CCCNCC4)nc3-c3ccc(C#N)c(F)c3)ccc21 [Compound 20, 2-(4-cyano-3-fluorophenyl)-6-(1,4-diazaniline-1-yl)-3-(1-methyl-1H-indazol-5-yl)isonicotinonitrile]
6.2	–	–	–	–	COc1ccc(-c2c(C#N)cc(N3CCC4(CC3)CNC4)nc2-c2ccc(C#N)c(F)c2)cc1F [Compound 22, 2-(4-cyano-3-fluorophenyl)-3-(3-fluoro-4-methoxyphenyl)-6-(2,7-diazaspiro[3.5]non-7-yl)isonicotinonitrile]
2.9	–	–	–	–	Cn1ncc2cc(-c3cc(C(N)=O)c(N4CCCNCC4)nc3-c3ccc(C#N)c(F)c3)ccc21 [Compound 26, 6-(4-cyano-3-fluorophenyl)-2-(1,4-diaza-1-yl)-5-(1-methyl-1H-indazol-5-yl)nicotinamide]
3.3	–	–	–	–	CN(C)C(=O)c1cc(-c2ccc3c(cnn3C)c2)c(-c2ccc(C#N)c(F)c2)nc1N1CCCNCC1 [Compound 27, 6-(4-cyano-3-fluorophenyl)-2-(1,4-diazaniline-1-yl)-N,N-dimethyl-5-(1-methyl-1H-indazol-5-yl)nicotinamide]
2.3	–	–	–	–	Cn1ncc2cc(-c3cc(C(=O)NC4CC4)c(N4CCCNCC4)nc3-c3ccc(C#N)c(F)c3)ccc21 [Compound 28]
3.4	–	–	–	–	COc1ccc(-c2c(C#N)cc(N3CCC4(CCNC4)CC3)nc2-c2ccc(C#N)c(F)c2)cc1F [Compound 29, 2-(4-cyano-3-fluorophenyl)-3-(3-fluoro-4-methoxyphenyl)-6-(2,8-diazaspiro[4.5]dec-8-yl)isonicotinonitrile]
0.34	–	–	–	–	Cc1noc2cc(-c3c(C#N)cc(N4CCC(N)CC4)nc3-c3ccc(C#N)c(F)c3)c(F)cc12 [Compound 33, 6-(4-aminopiperid-1-yl)-2-(4-cyano-3-fluorophenyl)-3-(5-fluoro-3-tolueno[d]isoxazol-6-yl)isonicotinonitrile]
1.5	–	–	–	–	CN1C(=O)C(F)(F)c2cc(-c3c(C#N)cc(N4CCC(N)CC4)nc3-c3ccc(C#N)c(F)c3)ccc21 [Compound 34, 6-(4-aminopiperid-1-yl)-2-(4-cyano-3-fluorophenyl)-3-(3,3-difluoro-1-methyl-2-oxoindol-5-yl)isonicotinonitrile]
2.2	–	–	–	–	CC(C)(O)C(F)(F)c1ccc(-c2c(C#N)cc(N3CCC(N)CC3)nc2-c2ccc(C#N)c(F)c2)c(F)c1 [Compound 35, 6-(4-aminopiperid-1-yl)-2-(4-cyano-3-fluorophenyl)-3-(4-(1,1-difluoro-2-hydroxyl-2-methylpropyl)-2-fluorophenyl)isonicotinonitrile]
